# Legend:
# [1] = system: powdery mildew spores (spores of Oidium neolycopersici); assay: Treatment of tomato plants against mildew disease (Example 1, natamycin and lactoperoxidase system mixed before application); assay type: in vivo, Oidium neolycopersici on tomato plants
# Protocol: (§1) Tomato plants were grown in a greenhouse using well known methods. Twenty-five days after planting, the tomato plants were inoculated with powdery mildew spores (spores of Oidium neolycopersici). Fourteen days after the tomato plants were inoculated with the spores, the plants were treated with: a) a composition comprising natamycin (1500 ppm), b) a composition comprising a lactoperoxidase system, or c) a composition comprising natamycin (1500 ppm) and a lactoperoxidase system (natamycin and the lactoperoxidase system were mixed before application to the tomato plants). As a control, untreated tomato plants were used. All compositions comprising natamycin comprised glycerol (2.5 ml/l ) and polyether trisiloxane (BREAK-TRU®; 0.25 ml/l ). The lactoperoxidase system comprised lactoperoxidase, potassium iodide, potassium thiocyanate and a hydrogen peroxide source. When the lactoperoxidase system was used alone, ADDIT, a rapeseed-oil based adjuvant, was added to the lactoperoxidase system. The tomato plants were sprayed with 2000 lof the respective composition per ha, corresponding to a rate of about 130 ml of the respective composition per plant. The trial was performed on four plots with each plot containing 5 tomato plants. Powdery mildew growth was assessed in a twofold manner: (i) the number of visible colonies on 2 marked leafs of each tomato plant were counted; and (ii) the antifungal activity (in %) of the individual and combined active ingredients was determined by calculating the reduction in mould growth observed on the marked leafs of the tomato plants that were treated with the antifungal composition in comparison to the mould growth on the marked leafs of the tomato plants that were treated with the control composition. The expected antifungal activity (E in %) of the combined antifungal composition comprising both active ingredients was calculated according to the Colby equation (Colby, 1967): E=X+Y−[(X·Y)/100] wherein X and Y are the observed antifungal activities (in %) of the individual active ingredients X and Y, respectively. If the observed antifungal activity (O in %) of the combination exceeds the expected antifungal activity (E in %) of the combination and the synergy factor O/E is thus >1.0, the combined application of the active ingredients leads to a synergistic antifungal effect.
# [2] = system: powdery mildew spores (spores of Oidium neolycopersici); assay: Treatment of tomato plants against mildew disease (Example 2, lactoperoxidase system applied first, natamycin after one hour); assay type: in vivo, Oidium neolycopersici on tomato plants
# Protocol: as §1, with “with:” for “with: a) a composition comprising natamycin (1500 ppm), b) a composition comprising a lactoperoxidase system, or c) a composition comprising natamycin (1500 ppm) and a lactoperoxidase system (natamycin and the lactoperoxidase system were mixed before application to the tomato plants). As a control, untreated tomato plants were used.”, “effect. The experiment was done as described in Example 1, with the proviso that first of all the lactoperoxidase system was applied to the tomato plants and after one hour (when the tomato plants were dry again) the natamycin composition was applied.” for “effect.”
compound,measurement,setting,value
"C[C@@H]1C/C=C/C=C/C=C/C=C/[C@H](O[C@@H]2O[C@H](C)[C@@H](O)[C@H](N)[C@@H]2O)C[C@@H]2O[C@](O)(C[C@@H](O)C[C@H]3O[C@@H]3/C=C/C(=O)O1)C[C@H](O)[C@H]2C(=O)O [Natamcyin, natamycin]",Change in visible fungal colonies at 9 days after application,[1]; 9 days after application of the respective compositions,increase in visible fungal colonies
same,"Average number of fungal colonies per tomato leaf, Day 9","[1]; 9 days after application, natamycin 1500 ppm, spray 2000 l/ha",11.9
same,"Average number of fungal colonies per tomato leaf, Day −1","[1]; one day before application of the composition (baseline), natamycin 1500 ppm, spray 2000 l/ha",6.1
same,"Average number of fungal colonies per tomato leaf, Day 9 corrected for Day −1","[1]; positive = increase, negative = decrease from day −1 to day 9, natamycin 1500 ppm",5.8
same,Change in visible fungal colonies at 9 days after application,"[2]; 9 days after application, combination applied sequentially",increase in visible fungal colonies
same,"Average number of fungal colonies per tomato leaf, Day 9","[2]; 9 days after application, combination: lactoperoxidase system first, natamycin after one hour",11.9
same,"Average number of fungal colonies per tomato leaf, Day −1","[2]; one day before application (baseline), combination applied sequentially",6.1
same,"Average number of fungal colonies per tomato leaf, Day 9 corrected for Day −1","[2]; positive = increase, negative = decrease from day −1 to day 9, combination applied sequentially",5.8

# From patent US20150282489A1, “SYNERGISTIC FUNGICIDAL COMPOSITIONS CONTAINING LACTOPEROXIDASE SYSTEM” (DSM IP ASSETS B.V., priority 2012, published 2015)
